In PMC9457773 (Molecules, 2022):
Read-outs that look alike come from different tables or passages of the source.

Columns and labels:
[1] = rat; for Stability, Bench-Top: measured concentration: 4 h; for Stability, Autosampler: measured concentration: 12 h; for Stability, Long-Term: measured concentration: 30 days
Description: (§1) A 5 μL aliquot of the mixed working solution was added to 45 μL of blank plasma to prepare the calibration standards.
(§2) The selectivity of the method was assessed by comparing the chromatograms of six independent blank rat plasma samples, simulated plasma samples in which blank rat plasma samples were spiked with working solution at a lower limit of quantitation (LLOQ) and IS, and actual plasma samples collected from rats. […] Different concentrations of the QC and LLOQ samples, with six replicates at each concentration, were used to evaluate precision and accuracy, and inter-batch precision and accuracy were evaluated by measurements for three consecutive days. The precision was expressed as the coefficient of variation (CV%), and the accuracy was expressed as the relative error (RE%). The extraction recovery was evaluated by comparing the peak areas of blank plasma spiked with working solution pre-extraction and blank plasma spiked with working solution post-extraction. The matrix effect was evaluated by the ratio of the peak area of the analyte in the plasma to the peak area of the analyte in solution at three concentrations of the QC samples. […] Three concentrations of the QC samples, with six replicates at each concentration level, were used to examine the stability of the three analytes at room temperature for 4 h, in the autosampler for 12 h, at −80 °C for 30 days, and freeze–thaw three times.

[2] = literature value, Introduction; cited from earlier work
[3] = literature value, Introduction, cited from earlier work
[4] = literature statement in words, Introduction, cited from earlier work
[5] = Pharmacokinetic and drug–drug interaction study in rats (plasma, UPLC–MS/MS); conditions: for AUC(0-inf): AUCinf; for AUC(0-t): AUClast; for CL/F: CLz/F; for Tmax: median (range); for Vd/F: Vz/F; for half-life: t1/2z
Description: First, 50 μL of the plasma sample was added to 5 μL of the mixture IS working solution and 500 μL of the extraction reagent (methyl tert-butyl ether and ethyl acetate, 1:4) vortex-mixed for 3 min and then centrifuged at 12,000 rpm for 10 min. Next, 400 μL of supernatant was transferred into a new centrifuge tube, which was blown dry under a stream of nitrogen, and the residue was re-solubilized with 150 μL of 50% acetonitrile–water.
The concentrations of analytes were determined by UPLC–MS/MS, which consisted of an LC-30A ultra-performance liquid chromatography (Shimadzu, Japan), and Sciex Triple Quad 5500 tandem triple quadrupole mass spectrometer (Applied Biosystems Sciex, Framingham, MA, USA). The XSelect HSS T3 column (2.1 mm × 100 mm, 2.5 μm, Waters, Milford, MA, USA) was used for chromatographic separation. Phase A (0.1% formic acid in ultrapure water containing 5 mM ammonium acetate) and phase B (acetonitrile) were used as the mobile phases for gradient elution at 0.35 mL/min.
The experimental animals were randomly divided into five groups (n = 6 per group). […] Approximately 0.25 mL of blood was collected from the orbital venous plexus of rats in pre-heparinized centrifuge tubes. […] Blood samples were centrifuged at 3500 rpm for 10 min, and the plasma was transferred to new centrifuge tubes and then stored at −80 °C.
The Cmax and Tmax (time to maximum plasma concentration) were read directly from the drug concentrations. The other pharmacokinetic parameters were analyzed using a non-compartmental analysis with Phoenix WinNonLin 8.2 software (Pharsight, Mountain View, Certara, CA, USA).

[6] = Stability of QC samples in rat plasma under various storage conditions; conditions: for Stability, Autosampler: measured concentration / Stability, Freeze-Thaw: measured concentration / Stability, Bench-Top: measured concentration / Stability, Long-Term: measured concentration: rat plasma QC, n = 6; for Stability, Autosampler: measured concentration: autosampler for 12 h; for Stability, Freeze-Thaw: measured concentration: freeze–thaw three times; for Stability, Bench-Top: measured concentration: room temperature for 4 h; for Stability, Long-Term: measured concentration: −80 °C for 30 days
Description: as §1, §2

[7] = Sprague Dawley, rat, plasma, po, 1.2 mg/kg, lenvatinib in rat plasma, lenvatinib 1.2 mg/kg oral co-administered with canagliflozin 10 mg/kg (VLEN+CA), n = 6, mean ± SD
[8] = Sprague Dawley, rat, plasma, po, 1.2 mg/kg, lenvatinib in rat plasma, oral single dose lenvatinib 1.2 mg/kg alone (IILEN), n = 6, mean ± SD
[9] = lenvatinib (1.2 mg/kg) in the presence of canagliflozin (10 mg/kg) compared to lenvatinib alone, rats
[10] = lenvatinib in rat plasma, oral single dose lenvatinib 1.2 mg/kg alone (IILEN), n = 6, mean ± SD
[11] = Sprague Dawley, rat, plasma, po, 100 mg/kg, sorafenib in rat plasma, oral single dose sorafenib 100 mg/kg alone (ISOR), n = 6, mean ± SD
[12] = Sprague Dawley, rat, plasma, po, 100 mg/kg, sorafenib in rat plasma, sorafenib 100 mg/kg oral co-administered with canagliflozin 10 mg/kg (IVSOR+CA), n = 6, mean ± SD

With `COc1cc2nccc(Oc3ccc(NC(=O)NC4CC4)c(Cl)c3)c2cc1C(N)=O` [lenvatinib, Lenvatinib] the “Stability, Freeze-Thaw: measured concentration” value (“Stability, Freeze-Thaw” for short) ([1]; 0.5 ng/mL) was 0.53 ± 0.03 ng/mL, the “Stability, Freeze-Thaw” value ([1]; 150 ng/mL) was 157.33 ± 11.02 ng/mL and the “Stability, Freeze-Thaw” value ([1]; 800 ng/mL) was 725.83 ± 18.06 ng/mL. The “Stability, Bench-Top: measured concentration” value (“Stability, Bench-Top” below) ([1]; 0.5 ng/mL) was 0.54 ± 0.03 ng/mL, the “Stability, Bench-Top” value ([1]; 150 ng/mL) was 156.67 ± 7.42 ng/mL and the “Stability, Bench-Top” value ([1]; 800 ng/mL) was 794.00 ± 18.24 ng/mL. For the same molecule, the “Stability, Autosampler: measured concentration” value (“Stability, Autosampler” for short) ([1]; 0.5 ng/mL) was 0.53 ± 0.04 ng/mL, the “Stability, Autosampler” value ([1]; 150 ng/mL) was 162.67 ± 7.42 ng/mL and the “Stability, Autosampler” value ([1]; 800 ng/mL) was 819.50 ± 30.36 ng/mL. The “Stability, Long-Term: measured concentration” value (“Stability, Long-Term” below) ([1]; 0.5 ng/mL) was 0.47 ± 0.03 ng/mL, the “Stability, Long-Term” value ([1]; 150 ng/mL) was 157.00 ± 12.63 ng/mL and the “Stability, Long-Term” value ([1]; 800 ng/mL) was 714.00 ± 24.44 ng/mL. The “plasma protein binding rate” value [2] was “approximately 98%”, the half-life [3] was 28 h and the solubility [4] was “low”. It also gave an AUC(0-inf) [5, 7] of 7280 ± 1170 ng·h/mL, an AUC(0-t) [5, 7] of 7280 ± 1170 ng·h/mL and a CL/F [5, 7] of 2.83 mL/min/kg. It also gave a CL/F [5, 8] of 3.67 mL/min/kg, a Cmax [5, 7] of 985 ± 162 ng/mL and a Cmax [5, 8] of 721 ± 144 ng/mL. It also gave a Tmax ([5]; Sprague Dawley, rat, plasma, po, 1.2 mg/kg, Tmax, lenvatinib in rat plasma, oral single dose lenvatinib 1.2 mg/kg alone (IILEN), n = 6) of 1.75 h, a Vd/F [5, 7] of 1.56 ± 0.29 L/kg and a Vd/F [5, 8] of 3.31 ± 1.51 L/kg. The half-life [5, 7] was 6.49 ± 1.04 h, the half-life [5, 8] was 10.5 ± 4.53 h and the “decrease of CLz/F” value [5, 9] was 22.7%. For the same molecule, the “decrease of Vz/F” value [5, 9] was 52.9%, the “decrease of t1/2” value [5, 9] was 38% and the “increase of AUCinf” value [5, 9] was 28.9%. For the same molecule, the “increase of AUClast” value [5, 9] was 28.9%, the “increase of Cmax” value [5, 9] was 36.2% and the Tmax ([5]; lenvatinib in rat plasma, lenvatinib 1.2 mg/kg oral co-administered with canagliflozin 10 mg/kg (VLEN+CA), n = 6) was 1.50 (0.88–1.63) h. The AUCinf [5, 10] was 5653 ± 1299 ng·h/mL, the AUClast [5, 10] was 5640 ± 1292 ng·h/mL and the “increase of AUC” value ([5]; lenvatinib in the presence of canagliflozin, rats, abstract, AUC not specified as last or inf) was 28.9%.
For `CNC(=O)c1cc(Oc2ccc(NC(=O)Nc3ccc(Cl)c(C(F)(F)F)c3)cc2)ccn1` [sorafenib, Sorafenib], the “plasma protein binding rate” value [2] is given as 99.5%, the “time to peak blood concentration” value ([3]; after oral administration) is given as “approximately 3 h” and the solubility [4] is given as “poor”. For the same molecule, the permeability ([4]; membrane permeability) was “high”, the “stability during the different processing and storage conditions” value ([6]; rat plasma QC samples, room temperature 4 h, autosampler 12 h, −80 °C 30 days, three freeze–thaw cycles) was “stable” and the “Stability, Autosampler” value ([6]; nominal 10 ng/mL) was 11.13 ± 0.24 ng/mL. For the same molecule, the “Stability, Freeze-Thaw” value ([6]; nominal 10 ng/mL) was 10.55 ± 0.43 ng/mL, the “Stability, Bench-Top” value ([6]; nominal 10 ng/mL) was 10.97 ± 0.29 ng/mL and the “Stability, Long-Term” value ([6]; nominal 10 ng/mL) was 10.51 ± 0.43 ng/mL. The “Stability, Autosampler” value ([6]; nominal 1500 ng/mL) was 1540.00 ± 95.71 ng/mL, the “Stability, Freeze-Thaw” value ([6]; nominal 1500 ng/mL) was 1531.67 ± 117.88 ng/mL and the “Stability, Bench-Top” value ([6]; nominal 1500 ng/mL) was 1551.67 ± 84.00 ng/mL. The “Stability, Long-Term” value ([6]; nominal 1500 ng/mL) was 1565.00 ± 123.25 ng/mL, the “Stability, Autosampler” value ([6]; nominal 3750 ng/mL) was 3961.67 ± 102.26 ng/mL and the “Stability, Freeze-Thaw” value ([6]; nominal 3750 ng/mL) was 3698.33 ± 72.78 ng/mL. The “Stability, Bench-Top” value ([6]; nominal 3750 ng/mL) was 3948.33 ± 99.88 ng/mL, the “Stability, Long-Term” value ([6]; nominal 3750 ng/mL) was 3583.33 ± 67.43 ng/mL and the AUC(0-inf) [5, 11] was 40300 ng·h/mL. It also gave an AUC(0-inf) [5, 12] of 41300 ng·h/mL, an AUC(0-t) [5, 11] of 40000 ng·h/mL and an AUC(0-t) [5, 12] of 41200 ng·h/mL. The CL/F [5, 11] was 47.7 mL/min/kg, the CL/F [5, 12] was 42 mL/min/kg and the Cmax [5, 11] was 1920 ± 298 ng/mL. The Cmax [5, 12] was 2200 ± 535 ng/mL, the Vd/F [5, 11] was 49 ± 18.8 L/kg and the Vd/F [5, 12] was 38.3 ± 10.1 L/kg. The half-life [5, 11] was 12.3 ± 2.23 h, the Tmax ([5]; sorafenib in rat plasma, oral single dose sorafenib 100 mg/kg alone (ISOR), n = 6) was 8.00 (7.00–8.00) h and the t1/2z ([5]; sorafenib in rat plasma, sorafenib 100 mg/kg oral co-administered with canagliflozin 10 mg/kg (IVSOR+CA), n = 6, mean ± SD) was 10.47 ± 0.94 h.
